Results taken from US20070154393A1, “Bioassay for volatile low molecular weight insecticides and methods of use” (priority 2005, published 2007).

test system: insecticide-susceptible Drosophila melanogaster (Canton-S strain); assay type: in vivo; settings: Table 1; Canton-S, 24 hr exposure, probit analysis
Method: The insecticide-susceptible Canton-S strain of Drosophila was obtained from the Bloomington Drosophila stock center (Indiana University, Bloomington, Ind.), and used exclusively in all studies. Flies were reared in 100-ml vials capped with acetate plugs (Fisher Scientific; Suwannee, Ga.) on a JAZZ-MIX diet (Fisher) prepared with a 2:1 ratio of water to apple juice. Flies were reared on a 12:12 photocycle at 24° C. and ambient relative humidity. Mixed-sex adults, less than 1-wk old, were used in bioassays.
Flies were briefly anesthetized in rearing vials with a pulse of CO2 and transferred to a CO2 flowbed (Genesee Scientific; San Diego, Calif.). Using a camel hair brush and a 5×5 cm sheet of rice paper, ten flies were placed into 7.0 ml dram vials. Prior to adding flies, each vial received a 0.5 cm^3 block of rearing diet that had been sufficiently dried on a paper towel to remove excessive moisture. The vials were then capped with open-top septum caps (Fisher) that were covered with fine mesh. The mesh was applied to the septum caps in advance using hot glue; it prevented fly escape but readily permitted gas exchange. The flies were allowed 1-hr to recover from the CO2 anesthesia. After one hour, single vials with flies were placed into 0.5 L glass jars, along with a filter paper tent (see FIG. 1). In a fume hood, filter paper tents were treated with insecticide dilutions or acetone for controls. The jars were then rapidly closed tightly with a metal lid. After 24 hours of exposure, mortality was scored with the aid of a magnifying glass.
All test compounds and solvents were >99% purity, and were purchased from Sigma-Aldrich Chemical (Milwaukee, Wis.). See Table 1 for a listing of the test compounds and their structures. Insecticide stock solutions were prepared at a standard concentration of 100 μg/μl in analytical grade acetone. For liquid insecticidal compounds, density in mg/μl was used to calculate weight on a per-volume basis. Stock solutions were held at −20° C. in sealed amber vials. In bioassay jars, filter paper tents were treated with stock volumes ranging from 2 to 20 μl, depending on the inherent toxicity of the test compound. These volumes of insecticide stock provided test concentrations of 200 to 2000 μg insecticide per replicate jar. A range of 4-5 concentrations plus a control were tested for each insecticide, and each range was repeated five times over at least three days. Controls received a volume of acetone identical to the highest insecticide volume that was tested (i.e., 10 μl for menthofuran; 20 μl for all other insecticides). Between uses, bioassay jars and lids were washed in a dishwasher, then baked 12-16 hr at 90° C. in a drying oven.
Probit and regression analyses were performed using the PROC PROBIT and PROC REG procedures, respectively. […] If control mortality ever exceeded 10% in a given replicate, that replicate was discarded.
Four Drosophila strains were used, all obtained from the Bloomington Drosophila Stock Center (Indiana University; Bloomington, Ind.). The Canton-S strain was used as the insecticide-susceptible standard. The Hikone-R strain is metabolically-resistant with elevated cytochrome P450 levels (Waters et al., 1984; Sundseth et al., 1989; Le Goff et al., 2003; Festucci-Buselli et al., 2005). Hikone-R is resistant to a number of insecticides, including malathion, DDT and neonicotinoids (Sundseth et al., 1989; Daborn et al., 2001). Two resistant neurological-mutant strains were also tested. […] Flies were reared in 100-ml vials capped with acetate plugs (Fisher Scientific; Suwanee, Ga.) on a commercial diet (JAZZ-MIX; Fisher Scientific). Flies were reared on a 12:12 photocycle at 24° C. and 60% relative humidity. Mixed-sex adults, less than 1-wk old, were used in bioassays.

Question: For methyl acetate, which “Slope ± Std. Error (best-fit probit mortality line)” value is on record?
Answer: 2.86 ± 0.91

same assay, conditions: in vivo

Question: For `CCCCCOC(C)=O` [PENTYL acetate, pentyl acetate], which “LC50 (95% CL)” value is on record?
Answer: 1792.0 (1658.0 − 1987.0) μg/jar

Question: How did the “LC50 (95% CL)” value turn out when `CCOC(C)=O` [ETHYL acetate, ethyl acetate] was run?
Answer: 3530.0 (2488.0 − 12723.0) μg/jar

Question: How did the “LC50 (95% CL)” value turn out when `CCCOC(=O)CCC` [PROPYL butyrate, propyl butyrate] was run?
Answer: 2035.0 (ND) μg/jar

Question: How did the “LC50 (95% CL)” value turn out when `CCC(=O)OC` [METHYL propionate, methyl propionate] was run?
Answer: 2391.0 (2076.0 − 3433.0) μg/jar

Question: How did the “LC50 (95% CL)” value turn out when `CCCOC(=O)CC` [PROPYL propionate, propyl propionate] was run?
Answer: 1931.0 (ND) μg/jar

Question: How did the “LC50 (95% CL)” value turn out when `CCOC(=O)CC` [ETHYL propionate, ethyl propionate] was run?
Answer: 3395.0 (2439.0 − 9039.0) μg/jar

Question: How did the “LC50 (95% CL)” value turn out when `CCCC(=O)OCC` [ETHYL butyrate, ethyl butyrate] was run?
Answer: 2034.0 (ND) μg/jar

Question: For `CCCCC(=O)OCC` [ETHYL valerate, ethyl valerate], which “LC50 (95% CL)” value is on record?
Answer: 2092.0 (1837.0 − 2670.0) μg/jar

Question: Which “LC50 (95% CL)” value does the source give for `CCCCOC(C)=O` [n-BUTYL acetate, n-butyl acetate] here?
Answer: 1821.0 (1730.0 − 1930.0) μg/jar

Question: For methyl acetate, which “LC50 (95% CL)” value is on record?
Answer: 2268.0 (ND) μg/jar

Question: Which “LC50 (95% CL)” value does the source give for `CC(=O)OC(C)C` [ISO-PROPYL acetate, iso-propyl acetate] here?
Answer: 1611.0 (1458.0 − 1782.0) μg/jar

Question: With `CCCC(=O)OC` [METHYL butyrate, methyl butyrate] as the molecule, how does the “LC50 (95% CL)” value read?
Answer: 2026.0 (1872.0 − 2314.0) μg/jar

Question: `CCCCCC` [hexane] was tested. Which “mortality elicited by solvent carrier” value did it give?
Answer: No mortality

Question: With `CCCCOC(=O)CC` [BUTYL propionate, butyl propionate] as the molecule, how does the “LC50 (95% CL)” value read?
Answer: 2126.0 (1894.0 − 2670.0) μg/jar

Question: With `CCO` [ethanol] as the molecule, how does the “mortality elicited by solvent carrier” value read?
Answer: No mortality

Question: For `CCCOC(C)=O` [PROPYL acetate, propyl acetate], which “LC50 (95% CL)” value is on record?
Answer: 2056.0 (ND) μg/jar

Question: For `CC(=O)OC(C)(C)C` [t-BUTYL acetate, t-butyl acetate], which “LC50 (95% CL)” value is on record?
Answer: 2134.0 (1943.0 − 2598.0) μg/jar

Question: Which “LC50 (95% CL)” value does the source give for `Cc1oc2ccccc2c1C` here?
Answer: 1960.0 (1543.0 − 2452.0) μg/jar

Question: How did the “LC50 (95% CL)” value turn out when `CCCCC(=O)OC` [METHYL valerate, methyl valerate] was run?
Answer: 2209.0 (1897.0 − 2997.0) μg/jar

Question: With `c1ccc2[nH]ccc2c1` [INDOLE, indole] as the molecule, how does the “LC50 (95% CL)” value read?
Answer: 2769.0 (2137.0 − 7873.0) μg/jar

Question: `CCCCCCOC(C)=O` [HEXYL acetate, hexyl acetate] was tested. Which “LC50 (95% CL)” value did it give?
Answer: 1666.0 (1582.0 − 1755.0) μg/jar

same assay, conditions: solvent carriers tested alone under optimized bioassay conditions

Question: For `CO` [methanol], which “mortality elicited by solvent carrier” value is on record?
Answer: No mortality

Question: With `CC(C)=O` [acetone] as the molecule, how does the “mortality elicited by solvent carrier” value read?
Answer: No mortality

Question: With `CC(C)O` [isopropanol] as the molecule, how does the “mortality elicited by solvent carrier” value read?
Answer: 100%

Question: `C[S+](C)[O-]` [DMSO] was tested. Which “mortality elicited by solvent carrier” value did it give?
Answer: No mortality

Question: Which “mortality elicited by solvent carrier” value does the source give for `COCCO` [methyl cellosolve] here?
Answer: No mortality
